The structures appear in SMILES notation.

This assay deals with T1, Dimer of Gag-Pol polyprotein [489-587] (Human immunodeficiency virus 1, UniProt P12497).
T1 construct: 489-587
Description: Protease Inhibition Assay. As to the method: The inhibitory activities of the compounds toward HIV-1 PR were determined by sodium dodecyl sulfate-polyacrylamide gel electrophoresis (SDS-PAGE) assay. The IC50 values of active compounds were determined using the partially purified protease and the synthetic substrate Ac-Ser-Gln-AsnTyr-Pro-Ile-Val-NH2.
For the compound `Cc1cc(O)c(C)c(C(=O)N[C@@H](Cc2cc(F)cc(F)c2)[C@H](O)C(=O)N2C[C@@H](Cl)C[C@H]2C(=O)NC(C)(C)C)c1` [(3-Hydroxy-2,5-dimethylbenzoyl)-{2(S)-hydroxy-3(S)-amino-4-(3,5-difluoro)-phenylbutanoyl}-4(S)-Cl-Pro-NH-t-Bu], the midpoint of inhibition, the IC50, lay at 1.2 nM.

In turn, `Cc1cc(O)c(C)c(C(=O)N[C@@H](Cc2ccc(-c3ccccc3)cc2)[C@H](O)C(=O)N2C[C@@H](Cl)C[C@H]2C(=O)NC(C)(C)C)c1` [(3-Hydroxy-2,5-dimethylbenzoyl)-{2(S)-hydroxy-3(S)-amino-4-(4-phenyl)-phenylbutanoyl}-4(S)-Cl-Pro-NH-t-Bu] had an IC50 of 1.3 nM.

On to `Cc1cccc(C[C@H](NC(=O)c2cccc(O)c2C)[C@H](O)C(=O)N2C[C@@H](Cl)C[C@H]2C(=O)NC(C)(C)C)c1` [(3-Hydroxy-2-methylbenzoyl)-(2(S)-hydroxy-3(S)-amino-4-m-tolylbutanoyl)-4(S)-Cl-Pro-NH-t-Bu], for which the IC50 was 0.6 nM. Under `Cc1ccc(C[C@H](NC(=O)c2cccc(O)c2C)[C@H](O)C(=O)N2C[C@@H](Cl)C[C@H]2C(=O)NC(C)(C)C)cc1` [(3-Hydroxy-2-methylbenzoyl)-(2(S)-hydroxy-3(S)-amino-4-p-tolylbutanoyl)-4(S)-Cl-Pro-NH-t-Bu] stands 0.9 nM; under `Cc1c(O)cccc1C(=O)N[C@@H](CCc1ccccc1)[C@H](O)C(=O)N1C[C@@H](Cl)C[C@H]1C(=O)NC(C)(C)C` [(3-Hydroxy-2-methylbenzoyl)-(2(S)-hydroxy-3(S)-amino-5-phenylpentanoyl)-4(S)-Cl-Pro-NH-t-Bu], 1.4 nM. `Cc1c(O)cccc1C(=O)N[C@@H](Cc1ccccc1)[C@H](O)C(=O)N1C[C@@H](Cl)C[C@H]1C(=O)NC(C)(C)C` [(3-Hydroxy-2-methylbenzoyl)-(2(S)-hydroxy-3(S)-amino-phenylbutanoyl)-4(S)-Cl-Pro-NH-t-Bu]: the IC50 was 0.9 nM. On to `Cc1c(O)cccc1C(=O)N[C@@H](Cc1cc(F)cc(F)c1)[C@H](O)C(=O)N1C[C@@H](Cl)C[C@H]1C(=O)NC(C)(C)C` [(3-Hydroxy-2-methylbenzoyl)-{2(S)-hydroxy-3(S)-amino-4-(3,5-difluoro)-phenylbutanoyl}-4(S)-Cl-Pro-NH-t-Bu], for which the IC50 came to 0.8 nM. As to `Cc1c(O)cccc1C(=O)N[C@@H](Cc1cccc(C(F)(F)F)c1)[C@H](O)C(=O)N1C[C@@H](Cl)C[C@H]1C(=O)NC(C)(C)C` [(3-Hydroxy-2-methylbenzoyl)-{2(S)-hydroxy-3(S)-amino-4-(3-trifluoromethyl)-phenylbutanoyl}-4(S)-Cl-Pro-NH-t-Bu], inhibition was half-maximal at 0.5 nM (IC50).

For the compound `COc1ccc(C[C@H](NC(=O)c2cccc(O)c2C)[C@H](O)C(=O)N2C[C@@H](Cl)C[C@H]2C(=O)NC(C)(C)C)cc1` [(3-Hydroxy-2-methylbenzoyl)-{2(S)-hydroxy-3(S)-amino-4-(4-methoxy)-phenylbutanoyl}-4(S) -Cl-Pro-NH-t-Bu], the IC50 worked out at 0.9 nM.

In the case of `Cc1c(O)cccc1C(=O)N[C@@H](Cc1ccc(-c2ccccc2)cc1)[C@H](O)C(=O)N1C[C@@H](Cl)C[C@H]1C(=O)NC(C)(C)C` [(3-Hydroxy-2-methylbenzoyl)-{2(S)-hydroxy-3(S)-amino-4-(4-phenyl)-phenylbutanoyl}-4(S)-Cl-Pro-NH-t-Bu], the IC50 was determined as 0.9 nM.

`Cc1c(O)cccc1C(=O)N[C@@H](Cc1cccc2ccccc12)[C@H](O)C(=O)N1C[C@@H](Cl)C[C@H]1C(=O)NC(C)(C)C` [(3-Hydroxy-2-methylbenzoyl)-{2(S)-hydroxy-3(S)-amino-4-(alpha-naphtyl)-butanoyl}-4(S)-Cl-Pro-NH-t-Bu] returned an IC50 of 1.5 nM. As for `Cc1c(O)cccc1C(=O)N[C@@H](Cc1ccc2ccccc2c1)[C@H](O)C(=O)N1C[C@@H](Cl)C[C@H]1C(=O)NC(C)(C)C` [(3-Hydroxy-2-methylbenzoyl)-{2(S)-hydroxy-3(S)-amino-4-(beta-naphtyl)-butanoyl}-4(S)-Cl-Pro-NH-t-Bu], the IC50 came out at 1 nM. The result for `Cc1c(O)cc(F)cc1C(=O)N[C@@H](Cc1cccc(C(F)(F)F)c1)[C@H](O)C(=O)N1C[C@@H](Cl)C[C@H]1C(=O)NC(C)(C)C` [(5-Fluoro-3-hydroxy-2-methylbenzoyl)-{2(S)-hydroxy-3(S)-amino-4-(3-trifluoromethyl)-phenylbutanoyl}-4(S)-Cl-Pro-NH-t-Bu] reads 2.1 nM. The compound `Cc1c(O)cc(F)cc1C(=O)N[C@@H](Cc1ccc2sccc2c1)[C@H](O)C(=O)N1C[C@@H](Cl)C[C@H]1C(=O)NC(C)(C)C` [(5-Fluoro-3-hydroxy-2-methylbenzoyl)-{2(S)-hydroxy-3(S)-amino-4-(benzo[b]thiophene-5-yl)-butanoyl}-4(S)-Cl-Pro-NH-t-Bu] had an IC50 of 1.9 nM.

For the origin of these results see BindingDB's records for doi:10.1016/s0968-0896(99)00127-3 (Sankyo, 1999).
